Data from patent publication US4132786A, “N-Substituted 2-methoxybenzenesulphonamides and medicaments containing them” (priority 1975, dated 1979).

Columns and labels:
[1] = Determination of acute toxicity (LD50), intravenous, male mice; details: mouse, in vivo, 5 mice per batch, 6 days
Experimental: The acute toxicity of the compounds according to the invention was determined on male mice whose weight varied between 24 and 26 g. The compounds are administered intravenously in solution form and at the rate of 0.5 ml per 20 g of body weight, by varying the concentration of the injected solution.
Each compound is tested on a batch of 5 mice which are examined for 6 days following the injection.

apomorphine = assay: Determination of central antiemetic activity (apomorphine vomiting); format: in vivo, Beagle dogs; details: 1 mg/kg intramuscular; for Antiemetic effect /22 (average number of vomitings for two dogs): 30 min before 0.1 mg/kg apomorphine s.c., counted 30 min, controls 22
Experimental: These tests were carried out on adult Beagle dogs with a weight of 7 to 12 kg and which had gone without food for 18 hours. The dogs receive a dose of 1 mg/kg (0.1 ml/kg) of the compound according to the invention by intramuscular injection. 30 minutes later, 0.1 mg/kg (0.1 ml/kg) of apomorphine is administered to them subcutaneously as a central compound. The vomitings during the 30 minutes following the injection of apomorphine are counted. For two dogs serving as controls and receiving only the apomorphine 22 vomitings were counted. […] The results were confirmed by alternate tests by resuming these tests and interchanging the control dogs and the dogs on which the compounds according to the invention were previously tried.
The results relating to the toxicity and the central antiemetic activity of the compounds given hereinbefore are stated clearly in the following Table. The antiemetic activity is expressed in the form of the average number of vomitings for two dogs and is to be compared with the number 22 obtained with the control animals.

cornea of rabbits = assay: Local anesthetic activity by Regnier's method; format: in vivo; details: in words
Experimental: This activity was measured on the cornea of rabbits by Regnier's method, described on particular in "Principes de la pharmacodynamie," pp. 204-206, Masson (1959).

pentetrazole = assay: Anticonvulsive activity (pentetrazole convulsions); format: in vivo, mice; details: 50 mg/kg i.p., pentetrazole 100 mg/kg i.p.
Experimental: The compounds according to the invention were tested for their anticonvulsive activity by following the procedure described hereinafter.
Each compound is administered intraperitoneally to a batch of mice at the rate of 50 mg of compound per kilogram of body weight. 30 minutes later the mice receive, still intraperitoneally, 100 mg/kg of pentetrazole.
The time of appearance of the first convulsions (clonic convulsions), that of the tonic convulsions (hyperextension) and the death of the mice is then measured. The injections of pentetrazole are carried out comparatively on control animals.

[2] = Solubility remark in the Toxicity column; format: physicochemical; details: in words

Row | Compound | LD50 at 144 h [1] [mg/kg] | Antiemetic effect /22 (average number of vomitings for two dogs) (apomorphine) [vomitings] | also measured
1 | CCN(CC)CCNS(=O)(=O)c1ccc([N+](=O)[O-])cc1OC | > 100 | 15 | 
2 | CCN(CC)CCNS(=O)(=O)c1ccc(N)cc1OC [Ref. b, 2-methoxy-4-amino-N-(2-diethylaminoethyl)benzenesulphonamide] | > 100 | 22 | local anesthetic action (cornea of rabbits): a certain local anesthetic action
3 | CCN(CC)CCCNS(=O)(=O)c1ccc(N)cc1OC [Ref. c, 2-methoxy-4-amino-N-(3-diethylaminopropyl)benzenesulphonamide] | 50 to 100 | 17 | local anesthetic action (cornea of rabbits): a certain local anesthetic action
4 | COc1cc([N+](=O)[O-])c(Cl)cc1S(=O)(=O)NCCN1CCCCC1 [Ref. d] | > 100 | 16 | 
5 | CCN(CC)CCCNS(=O)(=O)c1cc(Cl)c([N+](=O)[O-])cc1OC [Ref. e] | > 100 |  | 
6 | CCN(CC)CCNS(=O)(=O)c1cc(Cl)c(N)cc1OC [Ref. f] | 50 to 100 | 13 | 
7 | COc1cc(N)c(Cl)cc1S(=O)(=O)NCCN1CCCCC1 [Ref. g] | 50 to 100 | 13 | 
8 | COc1cc(N)c(Cl)cc1S(=O)(=O)NCCCN(C)C [Ref. h] | > 100 | 9 | 
9 | CCN(CC)CCCNS(=O)(=O)c1cc(Cl)c(N)cc1OC [Ref. i, 2-methoxy-4-amino-5-chloro-N-(3-diethylaminopropyl)benzenesulphonamide] | 117 | 3 | antiemetic activity (apomorphine; in words, apomorphine 0.1 mg/kg s.c.): excellent; mice dead at the end of the test (of five in the batch) (pentetrazole; of the five mice): three; lethalness (pentetrazole; in words): a decrease in the lethalness
10 | COc1cc(N)c(Cl)cc1S(=O)(=O)NCCCN1CCOCC1 [Ref. j] | > 100 | 22 | 
11 | COc1ccc(Cl)cc1S(=O)(=O)NCCN(C)C [Ref. k] | > 100 | 22 | 
12 | CCN(CC)CCNS(=O)(=O)c1cc(Cl)ccc1OC [Ref. l] | > 100 | 8 | 
13 | CCN(CC)CCCNS(=O)(=O)c1cc(Cl)ccc1OC [Ref. m] |  | 12 | solubility (printed in Toxicity column) [2]: insoluble
14 | COc1ccc(S(N)(=O)=O)cc1S(=O)(=O)NCCN(C)C [Ref. n] | > 100 |  | 
15 | COc1cc(N)c(Cl)cc1S(=O)(=O)NCCCN1CCCCC1 [Ref. o] | 80 to 100 |  | 
